Laboratory results as given in PubChem BioAssay (NCI).
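Cultured in 96-well plates, cells were exposed to test compound for 48 hours across five concentrations. The concentration for full growth arrest is given as TGI.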

Legend:
Experiment in all cases: growth of human tumour cells (NCI), 48 h
SF-295 CNS = system: SF-295 CNS
RXF 393 renal = system: RXF 393 renal
HCT-116 colon = system: HCT-116 colon
MCF7 breast = system: MCF7 breast
SF-539 CNS = system: SF-539 CNS
NCI-H460 lung = system: NCI-H460 lung
HCC-2998 colon = system: HCC-2998 colon
SW-620 colon = system: SW-620 colon
U251 CNS = system: U251 CNS
HT29 colon = system: HT29 colon
SN12C renal = system: SN12C renal
SNB-78 CNS = system: SNB-78 CNS
HOP-18 NSCLC = system: HOP-18 NSCLC
SK-MEL-5 melanoma = system: SK-MEL-5 melanoma
KM12 colon = system: KM12 colon
NCI/ADR-RES ovarian = system: NCI/ADR-RES ovarian
COLO 205 colon = system: COLO 205 colon
UACC-257 melanoma = system: UACC-257 melanoma
IGROV1 ovarian = system: IGROV1 ovarian
SNB-19 CNS = system: SNB-19 CNS
SN12K1 renal = system: SN12K1 renal
DMS 114 small cell lung = system: DMS 114 small cell lung
EKVX NSCLC = system: EKVX NSCLC
XF 498 CNS = system: XF 498 CNS
SK-MEL-28 melanoma = system: SK-MEL-28 melanoma
M19-MEL melanoma = system: M19-MEL melanoma
NCI-H226 lung = system: NCI-H226 lung
UACC-62 melanoma = system: UACC-62 melanoma
K-562 leukemia = system: K-562 leukemia
SNB-75 CNS = system: SNB-75 CNS
SF-268 CNS = system: SF-268 CNS
KM20L2 colon = system: KM20L2 colon
HCT-15 colon = system: HCT-15 colon
UO-31 renal = system: UO-31 renal
CCRF-CEM leukemia = system: CCRF-CEM leukemia
A498 renal = system: A498 renal
RPMI-8226 leukemia = system: RPMI-8226 leukemia
OVCAR-4 ovarian = system: OVCAR-4 ovarian
DLD-1 colon = system: DLD-1 colon
TK-10 renal = system: TK-10 renal
786-0 renal = system: 786-0 renal
NCI-H522 lung = system: NCI-H522 lung
OVCAR-5 ovarian = system: OVCAR-5 ovarian
MALME-3M melanoma = system: MALME-3M melanoma
HOP-62 NSCLC = system: HOP-62 NSCLC
HOP-92 NSCLC = system: HOP-92 NSCLC
RXF-631 renal = system: RXF-631 renal
SK-OV-3 ovarian = system: SK-OV-3 ovarian
ACHN renal = system: ACHN renal
OVCAR-3 ovarian = system: OVCAR-3 ovarian
HL-60(TB) leukemia = system: HL-60(TB) leukemia
LOX IMVI melanoma = system: LOX IMVI melanoma
LXFL 529 NSCLC = system: LXFL 529 NSCLC
NCI-H23 lung = system: NCI-H23 lung
SR leukemia = system: SR leukemia
MOLT-4 leukemia = system: MOLT-4 leukemia
M14 melanoma = system: M14 melanoma
A549 NSCLC = system: A549 NSCLC
OVCAR-8 ovarian = system: OVCAR-8 ovarian
CAKI-1 renal = system: CAKI-1 renal
DMS 273 small cell lung = system: DMS 273 small cell lung
SK-MEL-2 melanoma = system: SK-MEL-2 melanoma

C=C1CC(OC)(C(O)C(=O)N[C@H]2OCO[C@H]3C2O[C@H](C[C@@H](COC)OC)C(C)(C)C3OC)O[C@H](C)[C@@H]1C (stereo partly drawn)
TGI (SF-295 CNS): < 0.00482 µM | TGI (RXF 393 renal): < 0.00482 µM | TGI (HCT-116 colon): < 0.00482 µM | TGI (MCF7 breast): < 0.00482 µM | TGI (SF-539 CNS): < 0.00482 µM | TGI (NCI-H460 lung): < 0.00482 µM | TGI (HCC-2998 colon): < 0.00482 µM | TGI (SW-620 colon): 48.2 µM | TGI (U251 CNS): < 0.00482 µM | TGI (HT29 colon): < 0.00482 µM | TGI (SN12C renal): < 0.00482 µM | TGI (SNB-78 CNS): < 0.00482 µM | TGI (HOP-18 NSCLC): < 0.00482 µM | TGI (SK-MEL-5 melanoma): < 0.00482 µM | TGI (KM12 colon): < 0.00482 µM | TGI (NCI/ADR-RES ovarian): < 0.00482 µM | TGI (COLO 205 colon): < 0.00482 µM | TGI (UACC-257 melanoma): < 0.00482 µM | TGI (IGROV1 ovarian): < 0.00482 µM | TGI (SNB-19 CNS): < 0.00482 µM | TGI (SN12K1 renal): < 0.00482 µM | TGI (DMS 114 small cell lung): < 0.00482 µM | TGI (EKVX NSCLC): < 0.00482 µM | TGI (XF 498 CNS): < 0.00482 µM | TGI (SK-MEL-28 melanoma): < 0.00482 µM | TGI (M19-MEL melanoma): < 0.00482 µM | TGI (NCI-H226 lung): < 0.00482 µM | TGI (UACC-62 melanoma): < 0.00482 µM | TGI (K-562 leukemia): < 0.00482 µM | TGI (SNB-75 CNS): < 0.00482 µM | TGI (SF-268 CNS): < 0.00482 µM | TGI (KM20L2 colon): < 0.00482 µM | TGI (HCT-15 colon): < 0.00482 µM | TGI (UO-31 renal): < 0.00482 µM | TGI (CCRF-CEM leukemia): < 0.00482 µM | TGI (A498 renal): < 0.00482 µM | TGI (RPMI-8226 leukemia): < 0.00482 µM | TGI (OVCAR-4 ovarian): < 0.00482 µM | TGI (DLD-1 colon): < 0.00482 µM

CC(=O)/C=C/c1cccc(N=S)c1
TGI (TK-10 renal): > 89.9 µM | TGI (SF-295 CNS): 54.3 µM | TGI (RXF 393 renal): 53.8 µM | TGI (HCT-116 colon): 2.72 µM | TGI (SF-539 CNS): 20.8 µM | TGI (786-0 renal): 13.1 µM | TGI (NCI-H522 lung): > 53.7 µM | TGI (OVCAR-5 ovarian): > 100 µM | TGI (NCI-H460 lung): > 53.8 µM | TGI (MALME-3M melanoma): > 100 µM | TGI (HCC-2998 colon): 34.6 µM | TGI (HOP-62 NSCLC): > 100 µM | TGI (HOP-92 NSCLC): > 100 µM | TGI (SW-620 colon): 6.68 µM | TGI (U251 CNS): 20.8 µM | TGI (RXF-631 renal): > 100 µM | TGI (HT29 colon): 19.5 µM | TGI (SN12C renal): 87.2 µM | TGI (SK-OV-3 ovarian): > 81.9 µM | TGI (SNB-78 CNS): > 100 µM | TGI (ACHN renal): > 53.3 µM | TGI (HOP-18 NSCLC): > 100 µM | TGI (SK-MEL-5 melanoma): 63.4 µM | TGI (OVCAR-3 ovarian): 48.4 µM | TGI (KM12 colon): 20.2 µM | TGI (HL-60(TB) leukemia): 34.2 µM | TGI (COLO 205 colon): > 48 µM | TGI (LOX IMVI melanoma): 5.92 µM | TGI (UACC-257 melanoma): > 67.4 µM | TGI (IGROV1 ovarian): > 48.4 µM | TGI (LXFL 529 NSCLC): 32.9 µM | TGI (SNB-19 CNS): > 87.5 µM | TGI (NCI-H23 lung): > 92.7 µM | TGI (DMS 114 small cell lung): > 66.1 µM | TGI (SR leukemia): > 100 µM | TGI (EKVX NSCLC): > 63 µM | TGI (XF 498 CNS): > 100 µM | TGI (SK-MEL-28 melanoma): 44.6 µM | TGI (MOLT-4 leukemia): > 75.2 µM | TGI (M19-MEL melanoma): 18.3 µM | TGI (M14 melanoma): 22.4 µM | TGI (NCI-H226 lung): > 83.3 µM | TGI (A549 NSCLC): > 59.1 µM | TGI (UACC-62 melanoma): > 57.2 µM | TGI (K-562 leukemia): > 35.9 µM | TGI (SNB-75 CNS): > 91.8 µM | TGI (SF-268 CNS): > 69.6 µM | TGI (KM20L2 colon): 37 µM | TGI (HCT-15 colon): 31.9 µM | TGI (OVCAR-8 ovarian): 31 µM | TGI (UO-31 renal): > 74 µM | TGI (CAKI-1 renal): > 100 µM | TGI (CCRF-CEM leukemia): > 49.1 µM | TGI (A498 renal): 78.7 µM | TGI (RPMI-8226 leukemia): > 27.8 µM | TGI (DMS 273 small cell lung): 20.9 µM | TGI (OVCAR-4 ovarian): > 100 µM | TGI (DLD-1 colon): 16.5 µM

CC1=C[C@@H]2Cc3occc3C(C)(C)[C@@H]2CC1
TGI (TK-10 renal): 45.4 µM | TGI (SF-295 CNS): 34.1 µM | TGI (RXF 393 renal): 33.7 µM | TGI (HCT-116 colon): 33.7 µM | TGI (SF-539 CNS): 58.7 µM | TGI (786-0 renal): 34.1 µM | TGI (NCI-H522 lung): 28.6 µM | TGI (OVCAR-5 ovarian): 50.3 µM | TGI (MALME-3M melanoma): 44.2 µM | TGI (HCC-2998 colon): 36.2 µM | TGI (HOP-62 NSCLC): 92.2 µM | TGI (HOP-92 NSCLC): 38.9 µM | TGI (SW-620 colon): 31.8 µM | TGI (U251 CNS): 32.7 µM | TGI (RXF-631 renal): 38.5 µM | TGI (HT29 colon): 30.3 µM | TGI (SN12C renal): 29.8 µM | TGI (SK-OV-3 ovarian): > 100 µM | TGI (SNB-78 CNS): 66.6 µM | TGI (ACHN renal): 29.4 µM | TGI (HOP-18 NSCLC): 54 µM | TGI (SK-MEL-5 melanoma): 33.1 µM | TGI (OVCAR-3 ovarian): 31.5 µM | TGI (KM12 colon): 33.4 µM | TGI (HL-60(TB) leukemia): 39.1 µM | TGI (COLO 205 colon): 33.7 µM | TGI (LOX IMVI melanoma): 33.6 µM | TGI (UACC-257 melanoma): 44.7 µM | TGI (IGROV1 ovarian): > 10 µM | TGI (LXFL 529 NSCLC): > 100 µM | TGI (SNB-19 CNS): > 10 µM | TGI (NCI-H23 lung): 57.3 µM | TGI (DMS 114 small cell lung): 35.9 µM | TGI (SR leukemia): 32.7 µM | TGI (EKVX NSCLC): 33 µM | TGI (XF 498 CNS): 29.3 µM | TGI (SK-MEL-28 melanoma): 49.5 µM | TGI (MOLT-4 leukemia): 39.4 µM | TGI (M19-MEL melanoma): 31.2 µM | TGI (M14 melanoma): 47.1 µM | TGI (NCI-H226 lung): 32.8 µM | TGI (A549 NSCLC): 49.6 µM | TGI (UACC-62 melanoma): > 10 µM | TGI (K-562 leukemia): 42.6 µM | TGI (SNB-75 CNS): 33.5 µM | TGI (SK-MEL-2 melanoma): 24.5 µM | TGI (SF-268 CNS): 38.3 µM | TGI (KM20L2 colon): 33.8 µM | TGI (OVCAR-8 ovarian): 37.5 µM | TGI (UO-31 renal): 33.8 µM | TGI (CAKI-1 renal): 52.2 µM | TGI (CCRF-CEM leukemia): 35.6 µM | TGI (A498 renal): 49.6 µM | TGI (DMS 273 small cell lung): 26.8 µM | TGI (OVCAR-4 ovarian): 84.4 µM | TGI (DLD-1 colon): 32.8 µM
